Laboratory results from patent US11072612B2, “NLRP3 modulators” (INNATE TUMOR IMMUNITY, INC., priority 2016, dated 2021).

What was measured:
Format in all cases: cell-based
hNLRP3 = molecular target: T1, hNLRP3 (Homo sapiens, UniProt Q96P20); assay: hNLRP3 agonist assay: IL-1β production in PMA-differentiated THP-1 cells (ELISA); details: Table 2, 4 hours, IL-1β by ELISA
T1 construct: THP-1 cells were purchased from the American Type Culture Collection; host or cells: THP-1 cells, PMA-differentiated
T1 sequence (Q96P20 whole entry): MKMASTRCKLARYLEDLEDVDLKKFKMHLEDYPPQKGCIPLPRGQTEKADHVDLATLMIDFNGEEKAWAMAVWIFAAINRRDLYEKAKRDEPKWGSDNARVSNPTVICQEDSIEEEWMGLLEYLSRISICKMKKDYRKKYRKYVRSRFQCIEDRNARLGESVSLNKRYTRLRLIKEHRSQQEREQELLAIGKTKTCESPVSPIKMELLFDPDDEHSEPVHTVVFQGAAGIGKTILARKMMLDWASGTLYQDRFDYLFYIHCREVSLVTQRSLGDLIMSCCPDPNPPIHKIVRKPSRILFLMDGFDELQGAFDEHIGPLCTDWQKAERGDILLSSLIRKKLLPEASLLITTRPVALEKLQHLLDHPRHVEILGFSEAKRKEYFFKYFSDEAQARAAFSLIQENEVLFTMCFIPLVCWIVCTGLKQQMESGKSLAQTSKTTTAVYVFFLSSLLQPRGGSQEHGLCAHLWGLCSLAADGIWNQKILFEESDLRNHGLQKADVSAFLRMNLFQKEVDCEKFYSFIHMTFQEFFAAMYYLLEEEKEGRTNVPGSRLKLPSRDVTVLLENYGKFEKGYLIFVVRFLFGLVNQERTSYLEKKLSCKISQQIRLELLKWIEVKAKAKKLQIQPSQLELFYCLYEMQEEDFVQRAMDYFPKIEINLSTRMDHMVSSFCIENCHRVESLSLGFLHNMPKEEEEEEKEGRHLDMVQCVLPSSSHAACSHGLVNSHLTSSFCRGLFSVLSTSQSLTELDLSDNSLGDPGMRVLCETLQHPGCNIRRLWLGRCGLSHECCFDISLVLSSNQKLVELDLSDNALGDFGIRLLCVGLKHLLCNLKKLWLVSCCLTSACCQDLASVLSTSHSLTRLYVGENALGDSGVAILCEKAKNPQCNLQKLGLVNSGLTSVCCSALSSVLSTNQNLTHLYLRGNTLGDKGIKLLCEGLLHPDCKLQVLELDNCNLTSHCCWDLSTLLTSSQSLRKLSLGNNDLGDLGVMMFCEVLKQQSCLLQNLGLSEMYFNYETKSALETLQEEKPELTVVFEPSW
Description: THP-1 cells were purchased from the American Type Culture Collection and sub-cultured according to instructions from the supplier. Prior to experiments, cells were cultured in RPMI 1640 containing 10% heat inactivated FBS, penicillin (100 units/ml) and streptomycin (100 μg/ml), and maintained in log phase prior to experimental setup. Prior to the experiment THP-1 were treated with PMA (Phorbol 12-myristate 13-acetate) (10 μg/ml) for 24 hours. The day of the experiment the media was removed and attaching cells were treated with trypsin for 2 minutes, cells were then collected, washed with PBS (phosphate buffer saline), spin down, resuspended in 2% heat inactivated FBS with RPMI at a concentration of 1×10^6 cells/ml, and 100 μl was plated in a 96 well plate. Cells were incubated with compounds for 4 hours. Cell free supernatant was collected and the production of IL-1β was evaluated by ELISA. Compounds were dissolved in dimethyl sulfoxide (DMSO) and added to the culture medium to achieve desired concentration (e.g. 100, 30, 10, 3, 1, 0.3 or 0.1 μM). A vehicle only control was run concurrently with each experiment. Final DMSO concentration was 1%.

TLR7 = molecular target: T2, TLR7 (Homo sapiens, UniProt Q9NYK1); assay: TLR7 EC50 assay; details: Table 2
T2 sequence (Q9NYK1 27-1049): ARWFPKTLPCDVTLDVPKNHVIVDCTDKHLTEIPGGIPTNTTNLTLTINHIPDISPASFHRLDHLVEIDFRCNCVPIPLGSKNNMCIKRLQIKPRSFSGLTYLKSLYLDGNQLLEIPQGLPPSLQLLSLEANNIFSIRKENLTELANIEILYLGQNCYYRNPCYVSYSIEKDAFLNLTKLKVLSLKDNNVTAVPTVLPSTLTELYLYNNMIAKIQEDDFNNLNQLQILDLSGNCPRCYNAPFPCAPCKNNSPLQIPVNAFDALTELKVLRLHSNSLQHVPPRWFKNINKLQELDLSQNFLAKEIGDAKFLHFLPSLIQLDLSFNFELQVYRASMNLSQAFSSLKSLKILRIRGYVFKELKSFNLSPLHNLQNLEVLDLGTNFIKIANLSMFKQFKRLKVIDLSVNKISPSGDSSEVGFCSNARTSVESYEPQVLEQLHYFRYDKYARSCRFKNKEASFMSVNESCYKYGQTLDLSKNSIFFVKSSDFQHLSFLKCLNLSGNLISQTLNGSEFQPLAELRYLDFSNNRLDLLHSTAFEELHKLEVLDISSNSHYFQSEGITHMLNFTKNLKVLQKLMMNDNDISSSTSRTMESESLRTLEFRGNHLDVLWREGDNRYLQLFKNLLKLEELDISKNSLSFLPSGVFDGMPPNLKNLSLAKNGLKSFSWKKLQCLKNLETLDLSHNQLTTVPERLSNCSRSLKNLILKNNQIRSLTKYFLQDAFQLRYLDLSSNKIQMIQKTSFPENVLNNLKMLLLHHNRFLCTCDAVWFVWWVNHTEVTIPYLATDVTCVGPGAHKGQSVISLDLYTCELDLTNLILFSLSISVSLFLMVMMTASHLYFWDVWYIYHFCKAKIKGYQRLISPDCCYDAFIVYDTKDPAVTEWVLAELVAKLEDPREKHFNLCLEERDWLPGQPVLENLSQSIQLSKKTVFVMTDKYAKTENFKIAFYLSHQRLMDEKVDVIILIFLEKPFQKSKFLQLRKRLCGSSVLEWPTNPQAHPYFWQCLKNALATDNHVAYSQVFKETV

TLR8 = molecular target: T3, TLR8 (Homo sapiens, UniProt Q9NR97); assay: TLR8 EC50 assay; details: Table 2
T3 sequence (Q9NR97 27-1041): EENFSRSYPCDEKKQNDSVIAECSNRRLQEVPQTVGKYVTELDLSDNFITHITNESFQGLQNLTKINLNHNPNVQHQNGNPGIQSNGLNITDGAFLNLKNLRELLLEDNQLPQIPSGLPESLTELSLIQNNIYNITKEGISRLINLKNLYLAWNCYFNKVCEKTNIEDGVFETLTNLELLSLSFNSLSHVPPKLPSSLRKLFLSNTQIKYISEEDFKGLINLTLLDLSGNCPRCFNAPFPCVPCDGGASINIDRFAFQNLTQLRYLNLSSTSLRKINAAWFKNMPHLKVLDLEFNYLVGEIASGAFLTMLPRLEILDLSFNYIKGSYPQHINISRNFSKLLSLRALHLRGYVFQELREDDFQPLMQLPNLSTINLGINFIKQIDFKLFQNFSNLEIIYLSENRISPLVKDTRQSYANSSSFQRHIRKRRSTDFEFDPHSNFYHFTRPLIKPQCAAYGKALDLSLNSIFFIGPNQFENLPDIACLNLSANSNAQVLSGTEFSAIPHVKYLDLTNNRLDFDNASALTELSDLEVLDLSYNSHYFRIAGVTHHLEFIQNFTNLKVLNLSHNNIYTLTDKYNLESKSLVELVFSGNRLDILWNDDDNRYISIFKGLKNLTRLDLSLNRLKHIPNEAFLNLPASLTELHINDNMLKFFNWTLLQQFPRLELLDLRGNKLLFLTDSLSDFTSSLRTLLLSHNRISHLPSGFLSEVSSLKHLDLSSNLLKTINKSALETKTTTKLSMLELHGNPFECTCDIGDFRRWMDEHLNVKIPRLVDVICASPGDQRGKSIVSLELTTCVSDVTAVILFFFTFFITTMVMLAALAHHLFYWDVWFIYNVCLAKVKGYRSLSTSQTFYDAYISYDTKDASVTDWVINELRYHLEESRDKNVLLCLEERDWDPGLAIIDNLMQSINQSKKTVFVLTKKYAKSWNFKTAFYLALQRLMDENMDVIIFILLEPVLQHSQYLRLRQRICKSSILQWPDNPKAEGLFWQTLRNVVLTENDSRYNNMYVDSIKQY

Row | Structure (SMILES) | EC50 (hNLRP3) | EC50 (TLR7) | EC50 (TLR8)
1 | CCCc1ccc2c(c1)nc(N)c1nc(CCCO)[nH]c12 [Compound 160, 3-(4-amino-7-propyl-1H-imidazo[4,5-c]quinolin-2-yl)propan-1-ol] | ≤ 1 µM | 20 to 100 µM | > 100 µM
2 | Nc1nc2cc(C3CCCC3)ccc2c2[nH]c(CCCO)nc12 [Compound 161, 3-(4-amino-7-cyclopentyl-1H-imidazo[4,5-c]quinolin-2-yl)propan-1-ol] | ≤ 1 µM | > 100 µM | > 100 µM
3 | CCc1ccc2c(c1)nc(N)c1nc(CCCO)[nH]c12 [Compound 162, 3-(4-amino-7-ethyl-1H-imidazo[4,5-c]quinolin-2-yl)propan-1-ol] | 1 to 20 µM | 20 to 100 µM | 20 to 100 µM
4 | Nc1nc2cc(Oc3ccccc3)ccc2c2[nH]c(CCCO)nc12 [Compound 163, 3-(4-amino-7-phenoxy-1H-imidazo[4,5-c]quinolin-2-yl)propan-1-ol] | 20 to 100 µM | > 100 µM | > 100 µM
5 | Nc1nc2cc(Cl)ccc2c2[nH]c(CCCO)nc12 [Compound 165, 3-(4-amino-7-chloro-1H-imidazo[4,5-c]quinolin-2-yl)propan-1-ol] | 20 to 100 µM | 20 to 100 µM | 20 to 100 µM
6 | Nc1nc2cc(N3CCCC3)ccc2c2[nH]c(CCCO)nc12 [Compound 166, 3-(4-amino-7-pyrrolidin-1-yl-1H-imidazo[4,5-c]quinolin-2-yl)propan-1-ol] | > 100 µM | > 100 µM | > 100 µM
7 | Nc1nc2cc(N3CCCCC3)ccc2c2[nH]c(CCCO)nc12 [Compound 167, 3-(4-amino-7-piperidin-1-yl-1H-imidazo[4,5-c]quinolin-2-yl)propan-1-ol] | > 100 µM | > 100 µM | > 100 µM
8 | Nc1nc2cc(N3CCOCC3)ccc2c2[nH]c(CCCO)nc12 [Compound 168, 3-(4-amino-7-morpholin-4-yl-1H-imidazo[4,5-c]quinolin-2-yl)propan-1-ol] | > 100 µM | > 100 µM | > 100 µM
9 | CN(C)C(=O)CCCn1c(CCCO)nc2c(N)nc3cc(Br)ccc3c21 [Compound 169] | 1 to 20 µM | > 100 µM | > 100 µM
10 | Nc1ccc(-c2ccc3c(c2)nc(N)c2nc(CCCO)[nH]c23)cn1 [Compound 170, 3-[4-amino-7-(6-aminopyridin-3-yl)-1H-imidazo[4,5-c]quinolin-2-yl]propan-1-ol] | > 100 µM | > 100 µM | > 100 µM
11 | COc1ccncc1-c1ccc2c(c1)nc(N)c1nc(CCCO)[nH]c12 [Compound 171, 3-[4-amino-7-(4-methoxypyridin-3-yl)-1H-imidazo[4,5-c]quinolin-2-yl]propan-1-ol] | > 100 µM | > 100 µM | > 100 µM
12 | Cc1ccc(-c2ccc3c(c2)nc(N)c2nc(CCCO)[nH]c23)cn1 [Compound 172, 3-[4-amino-7-(6-methylpyridin-3-yl)-1H-imidazo[4,5-c]quinolin-2-yl]propan-1-ol] | > 100 µM | > 100 µM | > 100 µM
13 | CSc1ccc(-c2ccc3c(c2)nc(N)c2nc(CCCO)[nH]c23)cn1 [Compound 173, 3-[4-amino-7-(6-methylsulfanylpyridin-3-yl)-1H-imidazo[4,5-c]quinolin-2-yl]propan-1-ol] | > 100 µM | > 100 µM | > 100 µM
14 | Nc1nc2cc(C3CCCCC3)ccc2c2[nH]c(CCCO)nc12 [Compound 174, 3-(4-amino-7-cyclohexyl-1H-imidazo[4,5-c]quinolin-2-yl)propan-1-ol] | 20 to 100 µM | > 100 µM | > 100 µM
15 | COc1cncc(-c2ccc3c(c2)nc(N)c2nc(CCCO)[nH]c23)c1 [Compound 175, 3-[4-amino-7-(5-methoxypyridin-3-yl)-1H-imidazo[4,5-c]quinolin-2-yl]propan-1-ol] | > 100 µM | > 100 µM | > 100 µM
16 | Nc1nc2cc(-c3ccc(O)nc3)ccc2c2[nH]c(CCCO)nc12 [Compound 176, 5-[4-amino-2-(3-hydroxypropyl)-1H-imidazo[4,5-c]quinolin-7-yl]pyridin-2-ol] | > 100 µM | > 100 µM | > 100 µM
17 | CN(C)c1nc(-c2ccc3c(c2)nc(N)c2nc(CCCO)[nH]c23)cs1 [Compound 177, 3-[4-amino-7-[2-(dimethylamino)-1,3-thiazol-4-yl]-1H-imidazo[4,5-c]quinolin-2-yl]propan-1-ol] | > 100 µM | > 100 µM | > 100 µM
18 | Nc1nc2cc(-n3cccn3)ccc2c2[nH]c(CCCO)nc12 [Compound 178, 3-(4-amino-7-pyrazol-1-yl-1H-imidazo[4,5-c]quinolin-2-yl)propan-1-ol] | ≤ 1 µM | > 100 µM | 20 to 100 µM
19 | Nc1nc2cc(-n3ccnc3)ccc2c2[nH]c(CCCO)nc12 [Compound 179, 3-(4-amino-7-imidazol-1-yl-1H-imidazo[4,5-c]quinolin-2-yl)propan-1-ol] | > 100 µM | > 100 µM | > 100 µM
20 | Nc1nc2cc(NC(=O)c3ccccc3)ccc2c2[nH]c(CCCO)nc12 [Compound 180, N-[4-amino-2-(3-hydroxypropyl)-1H-imidazo[4,5-c]quinolin-7-yl]benzamide] | > 100 µM | > 100 µM | > 100 µM
21 | Cc1cnn(-c2ccc3c(c2)nc(N)c2nc(CCCO)[nH]c23)c1 [Compound 181, 3-[4-amino-7-(4-methylpyrazol-1-yl)-1H-imidazo[4,5-c]quinolin-2-yl]propan-1-ol] | 1 to 20 µM | > 100 µM | > 100 µM
22 | Nc1nc2cc(-n3cnc4ccccc43)ccc2c2[nH]c(CCCO)nc12 [Compound 182, 3-[4-amino-7-(benzimidazol-1-yl)-1H-imidazo[4,5-c]quinolin-2-yl]propan-1-ol] | > 100 µM | > 100 µM | > 100 µM
23 | Nc1nc2cc(N3CCCC3=O)ccc2c2[nH]c(CCCO)nc12 [Compound 183, 1-[4-amino-2-(3-hydroxypropyl)-1H-imidazo[4,5-c]quinolin-7-yl]pyrrolidin-2-one] | 20 to 100 µM | > 100 µM | > 100 µM
